The values that follow come from patent publication US20110059043A1, “CHEMICAL COMPOUNDS” (priority 2009, published 2011).

For series [1], the target named is T1, Recombinant HCV polymerase (BK strain) (Hepatitis C virus genotype 1b, UniProt P26663).
T1 construct: Recombinant HCV polymerase (BK strain) was expressed and purified from E. coli with a 21 amino acid C-terminal deletion; His6; made in house; host or cells: E. coli
Nature of the series: HCV polymerase enzyme assay (radiometric [33P]-UTP incorporation). In kind it is biochemical, HCV 1b. The procedure: Compounds were tested for inhibition of HCV polymerase using a radiometric [^33P]-UTP incorporation assay and a biotinylated U13:PolyA primer:template RNA substrate.
Recombinant HCV polymerase (BK strain) was expressed and purified from E. coli with a 21 amino acid C-terminal deletion and a His6-tag. The general assay buffer consisted of 20 mM Tris (pH 7.5), 25 mM KCl, 5 mM MgCl2, 3 mM DTT, 0.5 mg/ml BSA, 0.01% Tween20. The standard reaction, in 96 well plates, contained 10 μl of diluted compound, 50 μl of substrate and 40 μl of enzyme. Compounds, supplied as 10 mM stocks in DMSO, were diluted initially in neat DMSO, and subsequently buffer was added to give a DMSO concentration of 30%; 10 μl of this was added to the assay plate to give a final concentration in the 100 μl assay of 3% DMSO. The biotinylated U13:PolyA RNA substrate was pre-annealed with 40 μM 5′-biotinylated U13 (Dharmacon) and 213 μg/ml PolyA (Amersham Biosciences) in water incubated at 70° C. for 5 minutes before being cooled on ice. Substrate (50 μl) was added in buffer to give a final concentration in the 100 μl assay of 125 nM biotinylated U13:0.63 μg/ml PolyA and 200 nM UTP with 0.4 μCi [^33P]-UTP per well (Perkin Elmer). The reaction was initiated by the addition of 40 μl of enzyme in buffer to give 100 nM final concentration. The reaction was incubated at 25° C. for 100 minutes and then stopped by addition of 100 μl of 100 mM EDTA. The samples were then transferred to 96 well Streptavidin-coated FlashPlates (Perkin Elmer) and incubated at room temperature for ˜1 hour to allow binding to occur. The plates were then washed three times with phosphate-buffered saline containing 0.05% Tween20 in an automated plate washer to remove unincorporated [^33P]-UTP, and then counted in a
Each plate included a set of positive controls (no compound, maximum signal) and negative controls (no enzyme, minimum signal) and in each run at least one reference is compound was included to validate the assay. The IC50, concentration required to inhibit the enzyme activity by 50%, was calculated using an 8-point IC50 curve and fitted using the program XLfit (IDBS).

The test system of series [2] is HCV replicon cells Huh 9B. The series can be described thus: HCV replicon assay (luciferase). The class given is cell-based. To be noted: Hepatitis C virus, reduction of replicon level by 50% vs untreated cell control, 72 h. The procedure:
(§1) HCV replicon cells Huh 9B (ReBlikon), containing the firefly luciferase—ubiquitin—neomycin phosphotransferase fusion protein and EMCV-IRES driven HCV polyprotein with cell culture adaptive mutations.
(§2) Cells were cultured at 37° C. in a 5% CO2 environment and split twice a week on seeding at 2×10^6 cells/flask on day 1 and 1×10^6 3 days later. G418 at 0.5 mg/ml was added to the culture medium but not the assay medium. The culture medium consisted of DMEM with […] glucose and glutamax (Gibco 61965-026) supplemented with 1×non-essential amino acids (Invitrogen 11140-035), penicillin (100 IU/ml)/streptomycin (100 μg/ml) (Invitrogen 15140-122), FCS (10%, 50 ml) and […] (Invitrogen 10131-027) & 10% Australian foetal calf serum (Invitrogen 10099-141).
(§3) A flask of cells was trypsinised and a cell count carried out. Cells were diluted to 100,000 cells/ml and 100 μl of this used to seed one opaque white 96-well plate (for the replicon assay) and one flat-bottomed clear plate (for the tox assay) for every five compounds to be tested for IC50. Wells G12 and H12 were left empty in the clear plate as the blank. Plates were then incubated at 37° C. in a 5% CO2 environment for 24 h.
(§4) On the following day compound dilutions are made up in medium at twice their desired final concentration in a clear round bottomed plate. All dilutions have a final DMSO concentration of 1%.
(§5) Once the dilution plate had been made up, controls and compounds were transferred to the assay plates (containing the cells) at 100 μl/well in duplicate wells. Exception: no compound was added to wells A1 and A2 of either plate and 100 μl of 1% DMSO was added to these instead. Plates were then incubated at 37° C. with 5% CO2 for 72 h.
At the end of the incubation time, the cells in the white plate were harvested by washing in PBS (100 μL per well) and gently tapping dry before addition of […] of lysis buffer (25 mM tris-phosphate, 8 mM MgCl2, 1 mM DTT, 1% Triton X-100, 15% glycerol. pH to 7.8 using KH2PO4 prior to triton and glycerol addition. Substrate was prepared: 23.5 mM beetle luciferin (Promega E1603), 26 mM ATP (Sigma O-2060) in […] Tris buffer pH 7.8 aliquoted and stored at −80° C. was thawed and diluted 1:50 in luciferase assay buffer (20 mM Tricine (Sigma T-0377), 1.07 mM magnesium carbonate hydroxide (Sigma M-5671), 0.1 mM EDTA (Sigma E-5134), 2.67 mM MgSO4(BDH 101514Y), 33.3 mM dithiothreitol (Sigma 150460) pH 7.8).
The M injector of the microplate luminometer (Lmax, Molecular Devices) was primed with 5×300 μl injections of the diluted substrate. After 5-60 min incubation in lysis buffer at room temperature, a plate was inserted into the luminometer and 100 μl luciferase assay reagent was added by the injector on the luminometer. The signal was measured using a 1 second delay followed by a 4 second measurement programme. The IC50, the concentration of the drug required for reducing the replicon level by 50% in relation to the untreated cell control value, can be calculated from the plot of the percentage reduction of the luciferase activity vs. drug concentration.
On the technique in general: A replicon is a self-replicating genome or part of one, used to study replication in cells.

The test system of series [3] is HCV replicon cells Huh 9B. In kind it is cell-based. To be noted: concentration reducing total cell area by 50% relative to DMSO controls; 72 h. The protocol: as §1, §2, §3, §4, §5
The clear plate was stained with 100 μl 0.5% methylene blue in 50% ethanol at room temperature for lh, followed by solvation of the absorbed methylene blue in 100 μl per well of 1% lauroylsarcosine. Absorbance of the plate was measured on a microplate spectrophotometer (Molecular Devices) and the absorbance for each concentration of compound expressed as a proportion of the relative DMSO control. The TD50, the concentration of drug required to reduce the total cell area by 50% relative to the DMSO controls, can be calculated by plotting the absorbance at 620 nm minus background against drug concentration.

In general, IC50 refers to the point on the concentration scale where inhibition reaches its midpoint.

T1 sequence (P26663 2420-2989): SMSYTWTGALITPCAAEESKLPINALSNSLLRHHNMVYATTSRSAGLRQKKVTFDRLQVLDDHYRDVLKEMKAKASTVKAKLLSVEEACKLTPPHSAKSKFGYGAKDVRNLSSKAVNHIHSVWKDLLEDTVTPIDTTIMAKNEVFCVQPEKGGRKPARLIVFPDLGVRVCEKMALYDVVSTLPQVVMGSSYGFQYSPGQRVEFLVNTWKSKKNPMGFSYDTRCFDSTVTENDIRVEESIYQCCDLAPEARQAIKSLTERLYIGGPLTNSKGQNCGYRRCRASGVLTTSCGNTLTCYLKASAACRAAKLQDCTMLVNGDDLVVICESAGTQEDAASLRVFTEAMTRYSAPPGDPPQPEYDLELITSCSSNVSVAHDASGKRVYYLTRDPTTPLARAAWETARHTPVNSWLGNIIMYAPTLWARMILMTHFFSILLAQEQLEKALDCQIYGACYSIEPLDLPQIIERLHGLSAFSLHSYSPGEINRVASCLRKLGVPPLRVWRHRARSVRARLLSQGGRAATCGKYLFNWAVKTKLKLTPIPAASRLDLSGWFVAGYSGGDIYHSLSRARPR

On to `COCCOc1ccc(F)cc1C(=O)N[C@H]1N=C(c2c(Cl)cc(Cl)cc2Cl)c2ccccc2NC1=O` [Example 61, (S)-5-Fluoro-2-(2-methoxyethoxy)-N-(2-oxo-5-(2,4,6-trichlorophenyl)-2,3-dihydro-1H-benzo[e][1,4]diazepin-3-yl)benzamide], for which the half-inhibitory concentration (IC50) came out at 0.0444 µM in series [1] and 0.0167 µM in series [2]. For the same compound, the “Replicon Assay Value TD50” value in series [3] was determined as 17.347 µM.

`COCCOc1ccc(Cl)cc1C(=O)NC1N=C(c2c(Cl)cccc2Cl)c2ccccc2NC1=O` (stereo not drawn) [Example 47, 5-Chloro-N-(5-(2,6-dichlorophenyl)-2-oxo-2,3-dihydro-1H-benzo[e][1,4]diazepin-3-yl)-2-(2-methoxyethoxy)benzamide]: the values for the IC50 in series [1] and in series [2] were 0.149 µM and 0.583 µM, respectively. In addition, the “Replicon Assay Value TD50” value in series [3] was greater than 25 µM.

Regarding `COCCOc1ccc(Cl)cc1C(=O)NC1N=C(c2c(Cl)cc(Cl)cc2Cl)c2ccccc2NC1=O` (stereo not drawn) [Example 14, 5-Chloro-2-(2-methoxyethoxy)-N-(2-oxo-5-(2,4,6-trichlorophenyl)-2,3-dihydro-1H-benzo[e][1,4]diazepin-3-yl)benzamide], the half-maximal inhibitory concentration (IC50) turned out to be 0.154 µM in series [1] and 0.0833 µM in series [2]. Also, the “Replicon Assay Value TD50” value in series [3] was determined as 19.834 µM.

As for `CO[C@@H](C)COc1ccc(Cl)cc1C(=O)NC1N=C(c2c(Cl)cc(Cl)cc2Cl)c2ccccc2NC1=O` (stereo partly drawn) [Example 2, 5-Chloro-2-((S)-2-methoxypropoxy)-N-(2-oxo-5-(2,4,6-trichlorophenyl)-2,3-dihydro-1H-benzo[e][1,4]diazepin-3-yl)benzamide], the figures for the IC50 in series [1] and in series [2] were 0.167 µM and 0.382 µM, respectively. Further, the “Replicon Assay Value TD50” value in series [3] was greater than 25 µM.

Consider `CC(=O)NCCOc1ccc(Cl)cc1C(=O)NC1N=C(c2c(Cl)cc(Cl)cc2Cl)c2ccccc2NC1=O` (stereo not drawn) [Example 21, 2-(2-Acetamidoethoxy)-5-chloro-N-(2-oxo-5-(2,4,6-trichlorophenyl)-2,3-dihydro-1H-benzo[e][1,4]diazepin-3-yl)benzamide], for which the concentration for half-maximal inhibition (IC50) in series [1] was found to be 0.0987 µM; in series [2], 0.824 µM. For the same compound, in series [3], the “Replicon Assay Value TD50” value is 13.188 µM.

As to `CCN(CCOC)c1ncc(F)cc1C(=O)NC1N=C(c2c(Cl)cc(Cl)cc2Cl)c2ccccc2NC1=O` (stereo not drawn) [Example 43, 2-(Ethyl(2-methoxyethyl)amino)-5-fluoro-N-(2-oxo-5-(2,4,6-trichlorophenyl)-2,3-dihydro-1H-benzo[e][1,4]diazepin-3-yl)nicotinamide], the IC50 in series [1] is 0.205 µM; in series [2] it was 0.787 µM. Moreover, the “Replicon Assay Value TD50” value in series [3] was 23.97 µM.

As for `COCCOc1ccc(Cl)cc1C(=O)NC1N=C(c2c(Cl)cc(Cl)cc2CN2CCOCC2)c2ccccc2NC1=O` (stereo not drawn) [Example 49, 5-Chloro-N-(5-(2,4-dichloro-6-(morpholinomethyl)phenyl)-2-oxo-2,3-dihydro-1H-benzo[e][1,4]diazepin-3-yl)-2-(2-methoxyethoxy)benzamide], the half-inhibitory concentration (IC50) came to 0.829 µM in series [1] and 0.167 µM in series [2]. The “Replicon Assay Value TD50” value in series [3] was found to be 11.02 µM.

As for `CCS(=O)(=O)NCCCOc1ccc(Cl)cc1C(=O)NC1N=C(c2c(Cl)cc(Cl)cc2Cl)c2ccccc2NC1=O` (stereo not drawn) [Example 28, 5-chloro-2-(3-(ethylsulfonamido)propoxy)-N-(2-oxo-5-(2,4,6-trichlorophenyl)-2,3-dihydro-1H-benzo[e][1,4]diazepin-3-yl)benzamide], the 50% inhibitory concentration (IC50) was found to be 0.85 µM in series [1] and 2.13 µM in series [2]. For the same compound, the “Replicon Assay Value TD50” value in series [3] was 8.004 µM.

For the compound `CCCCCOCCOc1ccc(Cl)cc1C(=O)NC1N=C(c2c(Cl)cc(Cl)cc2Cl)c2ccccc2NC1=O` (stereo not drawn) [Example 7, 5-Chloro-N-(2-oxo-5-(2,4,6-trichlorophenyl)-2,3-dihydro-1H-benzo[e][1,4]diazepin-3-yl)-2-(2-(pentyloxy)ethoxy)benzamide], the IC50 turned out to be 0.662 µM in series [1] and 1.45 µM in series [2]. In addition, in series [3], the “Replicon Assay Value TD50” value worked out at 11.806 µM.

On to `COCCOc1ccc(F)cc1C(=O)NC1N=C(c2c(Cl)cc(Cl)cc2Cl)c2ccccc2NC1=O` (stereo not drawn) [Example 16, 5-Fluoro-2-(2-methoxyethoxy)-N-(2-oxo-5-(2,4,6-trichlorophenyl)-2,3-dihydro-1H-benzo[e][1,4]diazepin-3-yl)benzamide], for which the concentration for half-maximal inhibition (IC50) in series [1] was determined as 0.119 µM; in series [2], 0.0387 µM. In addition, the “Replicon Assay Value TD50” value in series [3] came to 22.094 µM.

Regarding `COCCN(C)c1ncc(F)cc1C(=O)NC1N=C(c2c(Cl)cc(Cl)cc2Cl)c2ccccc2NC1=O` (stereo not drawn) [Example 41, 5-Fluoro-2-((2-methoxyethyl)(methyl)amino)-N-(2-oxo-5-(2,4,6-trichlorophenyl)-2,3-dihydro-1H-benzo[e][1,4]diazepin-3-yl)nicotinamide], the IC50 in series [1] amounted to 0.129 µM; in series [2] it was 0.0247 µM. The “Replicon Assay Value TD50” value in series [3] is 24.146 µM.

Turning to `CC(C)OCCOc1ncc(F)cc1C(=O)NC1N=C(c2c(Cl)cc(Cl)cc2Cl)c2ccccc2NC1=O` (stereo not drawn) [Example 36, 5-Fluoro-2-(2-isopropoxyethoxy)-N-(2-oxo-5-(2,4,6-trichlorophenyl)-2,3-dihydro-1H-benzo[e][1,4]diazepin-3-yl)nicotinamide], the 50% inhibitory concentration (IC50) turned out to be 0.244 µM in series [1] and 0.307 µM in series [2]. The “Replicon Assay Value TD50” value in series [3] came out at 13.55 µM.

As to `COCCOCCOc1ccc(Cl)cc1C(=O)NC1N=C(c2c(Cl)cc(Cl)cc2Cl)c2ccccc2NC1=O` (stereo not drawn) [Example 5, 5-Chloro-2-(2-(2-methoxyethoxy)ethoxy)-N-(2-oxo-5-(2,4,6-trichlorophenyl)-2,3-dihydro-1H-benzo[e][1,4]diazepin-3-yl)benzamide], the IC50 in series [1] turned out to be 0.209 µM; in series [2], 0.49 µM. In addition, the “Replicon Assay Value TD50” value in series [3] is 15.913 µM.
